According to ChEMBL document CHEMBL1138147, “Respiratory syncytial virus fusion inhibitors. Part 3: Water-soluble benzimidazol-2-one derivatives with antiviral activity in vivo” (Bioorg Med Chem Lett, 2006):

How the values were obtained:
[1] = tested on: Respiratory syncytial virus; assay: Antiviral activity against RSV Long strain in human Hep2 cells; format: functional, organism-based; settings: HEp-2
[2] = tested on: HEp-2; assay: Cytotoxicity against human Hep2 cells infected with RSV Long strain; format: functional
[3] = Therapeutic index (CC50/EC50) for RSV infected Hep2 cells; format: cell-based, HEp-2; settings: human, read-out: Ratio CC50/EC50
[4] = tested on: Cotton rat; assay: Efficacy in cotton rat measured as reduction in log TCID50 of RSV per gram of lung at 2.0 mg/mL; format: functional, Sigmodon
[5] = tested on: Cotton rat; assay: Efficacy in cotton rat measured as reduction in log TCID50 of RSV per gram of lung at 0.2 mg/mL; format: functional, Sigmodon
[6] = tested on: Cotton rat; assay: Efficacy in cotton measured as reduction in log TCID50 of RSV per gram of lung rat at 0.05 mg/mL; format: functional, Sigmodon
[7] = tested on: Cotton rat; assay: Efficacy in cotton rat measured as reduction in log TCID50 of RSV per gram of lung at 0.01 mg/mL; format: functional, Sigmodon
[8] = tested on: Cotton rat; assay: Efficacy in cotton rat measured as reduction in log TCID50 of RSV per gram of lung at 0.67 mg/mL; format: functional, Sigmodon
[9] = tested on: Cotton rat; assay: Efficacy in cotton rat measured as reduction in log TCID50 of RSV per gram of lung at 1.0 mg/mL; format: functional, Sigmodon
[10] = tested on: Cotton rat; assay: Efficacy in cotton rat measured as reduction in log TCID50 of RSV per gram of lung at 1.33 mg/mL; format: functional, organism-based; settings: Sigmodon
[11] = tested on: Cotton rat; assay: Efficacy in cotton rat measured as reduction in log TCID50 of RSV per gram of lung at 1.6 mg/mL; format: functional, Sigmodon
[12] = tested on: Cotton rat; assay: Efficacy in cotton rat measured as reduction in log TCID50 of RSV per gram of lung at 0.5 mg/mL; format: functional, Sigmodon
[13] = tested on: Mus musculus; assay: Efficacy in BALB/c mouse measured as reduction in log TCID50 of RSV per gram of lung at 120 mg/kg, sc; format: functional; settings: route subcutaneous
[14] = tested on: Cotton rat; assay: Efficacy in cotton rat measured as reduction in log TCID50 of RSV per gram of lung at 90 mg/kg, ip; format: functional, Sigmodon; settings: route intraperitoneal
[15] = tested on: Mus musculus; assay: Efficacy in BALB/c mouse measured as reduction in log TCID50 of RSV per gram of lung at 90 mg/kg, sc; format: functional; settings: route subcutaneous

O=c1n(Cc2ccc(P(=O)(O)O)cc2)c2ccccc2n1Cc1nc2ccccc2[nH]1
EC50 [1]: 368 nM
CC50 [2]: > 174000 nM
selectivity ratio [3]: > 473

CCOP(=O)(O)c1ccc(Cn2c(=O)n(Cc3nc4ccccc4n3CCC(C)C)c3ccccc32)cc1
EC50 [1]: 48 nM
CC50 [2]: > 180000 nM
selectivity ratio [3]: > 3350

Oc1nc2ccccc2n1Cc1nc2ccccc2[nH]1
EC50 [1]: 1010 nM
CC50 [2]: 228000 nM
selectivity ratio [3]: 226

COc1ccc(Cn2c(=O)n(Cc3nc4ccccc4[nH]3)c3ccccc32)cc1
EC50 [1]: 333 nM
CC50 [2]: 41100 nM
selectivity ratio [3]: 123

CC(C)CCn1c(Cn2c(=O)n(CCCCS(=O)(=O)O)c3ccccc32)nc2ccccc21
EC50 [1]: 52 nM
CC50 [2]: 2900 nM
selectivity ratio [3]: 56

CC(C)CCn1c(Cn2c(=O)n(Cc3ccccc3C(=O)O)c3ccccc32)nc2ccccc21
EC50 [1]: 11 nM
CC50 [2]: 15700 nM
selectivity ratio [3]: 1430

CC(C)CCn1c(Cn2c(=O)n(Cc3ccc(C(=O)N[C@@H](CC(=O)O)C(=O)O)cc3)c3ccccc32)nc2ccccc21
Efficacy [4]: 2.6
EC50 [1]: 5 nM
CC50 [2]: > 144000 nM
selectivity ratio [3]: > 28800

CC(C)CCn1c(Cn2c(=O)n(Cc3ccc(P(=O)(O)O)cc3)c3ccccc32)nc2ccccc21
Efficacy [4]: 2.1
Efficacy [5]: 3.5
Efficacy [6]: 4
Efficacy [7]: 4.4
EC50 [1]: 27 nM
CC50 [2]: > 175000 nM
selectivity ratio [3]: 3000

CC(C)CCn1c(Cn2c(=O)n(Cc3ccc(Cn4c(=O)ccn(CC(=O)O)c4=O)cc3)c3ccccc32)nc2ccccc21
EC50 [1]: 3 nM
CC50 [2]: > 159000 nM
selectivity ratio [3]: > 53000

CC(C)n1c(=O)n(Cc2nc3ccccc3n2CCc2nnn[nH]2)c2ccccc21
EC50 [1]: 15 nM
CC50 [2]: 177000 nM
selectivity ratio [3]: 11800

CC(C)CCn1c(Cn2c(=O)n(CCCN(C)C)c3ccccc32)nc2ccccc21
EC50 [1]: 292 nM
CC50 [2]: 5300 nM
selectivity ratio [3]: 18

C=C(C)n1c(=O)n(Cc2nc3ccccc3n2CCCc2nnn[nH]2)c2ccccc21
EC50 [1]: 14 nM
CC50 [2]: > 330 nM
selectivity ratio [3]: > 23

O=C(O)c1ccc(Cn2c(=O)n(Cc3nc4ccccc4n3CCCO)c3ccccc32)cc1
EC50 [1]: 49 nM
CC50 [2]: 210000 nM
selectivity ratio [3]: 4280

O=C(O)c1ccc(Cn2c(=O)n(Cc3nc4ccccc4n3CCCCO)c3ccccc32)cc1
EC50 [1]: 4 nM
CC50 [2]: > 196000 nM
selectivity ratio [3]: > 49000

O=c1n(Cc2nc3ccccc3[nH]2)c2ccccc2n1Cc1ccccc1S(=O)(=O)O
EC50 [1]: 13 nM
CC50 [2]: 130000 nM
selectivity ratio [3]: 9970

CC(C)CCn1c(Cn2c(=O)n(CC(=O)O)c3ccccc32)nc2ccccc21
EC50 [1]: 163 nM
CC50 [2]: 194000 nM

CC(C)CCn1c(Cn2c(=O)n(Cc3cccc(C(=O)O)c3)c3ccccc32)nc2ccccc21
EC50 [1]: 10 nM
CC50 [2]: 10700 nM
selectivity ratio [3]: 1070

Cn1c(=O)n(Cc2nc3ccccc3[nH]2)c2ccccc21
EC50 [1]: 593 nM
CC50 [2]: > 202000 nM
selectivity ratio [3]: > 340

CC(C)CCn1c(Cn2c(=O)n(Cc3ccc(C(=O)O)cc3)c3ccccc32)nc2ccccc21
EC50 [1]: 11 nM
CC50 [2]: 27300 nM
selectivity ratio [3]: 2480

CC(C)CCn1c(Cn2c(=O)n(CCCCC(=O)O)c3ccccc32)nc2ccccc21
EC50 [1]: 8 nM
CC50 [2]: 16500 nM
selectivity ratio [3]: 2060

O=C(O)c1ccc(Cn2c(=O)n(Cc3nc4ccccc4[nH]3)c3ccccc32)cc1
Efficacy [8]: 3.6
EC50 [1]: 14 nM
CC50 [2]: 75500 nM
selectivity ratio [3]: 5400

O=C(O)c1cccc(Cn2c(=O)n(Cc3nc4ccccc4[nH]3)c3ccccc32)c1
EC50 [1]: 7 nM
CC50 [2]: > 194000 nM
selectivity ratio [3]: 6430

CC(C)CCn1c(Cn2c(=O)n(Cc3cc(C(=O)O)cc(C(=O)O)c3)c3ccccc32)nc2ccccc21
EC50 [1]: 656 nM
CC50 [2]: > 168000 nM
selectivity ratio [3]: > 256

CC(C)CCn1c(Cn2c(=O)n(CCCCc3nnn[nH]3)c3ccccc32)nc2ccccc21
EC50 [1]: 15 nM
CC50 [2]: 14900 nM
selectivity ratio [3]: 993

C=C(C)n1c(=O)n(Cc2nc3ccccc3n2CCCN(C)C)c2ccccc21
EC50 [1]: 75 nM
CC50 [2]: 19900 nM
selectivity ratio [3]: 265

CC(C)CCn1c(Cn2c(=O)n(Cc3ccc(Cn4c(=O)ccn(CC(=O)N[C@@H](CC(=O)O)C(=O)O)c4=O)cc3)c3ccccc32)nc2ccccc21
Efficacy [5]: 3.22
Efficacy [9]: 1.83
EC50 [1]: 8 nM
CC50 [2]: > 106000 nM
selectivity ratio [3]: > 13200

O=C(O)CN(CC(=O)O)C(=O)c1ccc(Cn2c(=O)n(Cc3nc4ccccc4n3CCCCO)c3ccccc32)cc1
EC50 [1]: 57 nM
CC50 [2]: 112000 nM
selectivity ratio [3]: 1960

CC(C)CCn1c(Cn2c(=O)n(CCCCCc3nnn[nH]3)c3ccccc32)nc2ccccc21
Activity ([4]; Sigmodon): Toxic
EC50 [1]: 13 nM
CC50 [2]: 90000 nM
selectivity ratio [3]: 6920

C=C(C)n1c(=O)n(Cc2nc3ccccc3n2CCc2nnn[nH]2)c2ccccc21
Activity [10]: Toxic
EC50 [1]: 8 nM
CC50 [2]: > 249000 nM

CC(C)CCn1c(Cn2c(=O)n(Cc3nn[nH]n3)c3ccccc32)nc2ccccc21
EC50 [1]: 500 nM
CC50 [2]: > 210000 nM
selectivity ratio [3]: > 420

CC(C)CCn1c(Cn2c(=O)n(Cc3ccccc3S(=O)(=O)O)c3ccccc32)nc2ccccc21
Efficacy [11]: 2.25
EC50 [1]: 7 nM
CC50 [2]: > 19000 nM
selectivity ratio [3]: > 2710

O=c1n(Cc2ccc(O)cc2)c2ccccc2n1Cc1nc2ccccc2[nH]1
EC50 [1]: 63 nM
CC50 [2]: 58700 nM
selectivity ratio [3]: 932

O=C(O)Cn1c(=O)n(Cc2nc3ccccc3n2CCCO)c2ccccc21
EC50 [1]: 1930 nM
CC50 [2]: 229000 nM
selectivity ratio [3]: 119

CC(C)CCn1c(Cn2c(=O)n(CCCCCC(=O)O)c3ccccc32)nc2ccccc21
EC50 [1]: 15 nM
CC50 [2]: 16500 nM
selectivity ratio [3]: 1100

O=c1n(Cc2ccccc2)c2ccccc2n1Cc1nc2ccccc2[nH]1
EC50 [1]: 114 nM
CC50 [2]: 129000 nM
selectivity ratio [3]: 1130

CC(C)CCn1c(Cn2c(=O)n(CCCc3nnn[nH]3)c3ccccc32)nc2ccccc21
EC50 [1]: 235 nM
CC50 [2]: 37100 nM
selectivity ratio [3]: 158

CC(C)CCn1c(Cn2c(=O)n(Cc3ccc(CP(=O)(O)O)cc3)c3ccccc32)nc2ccccc21
EC50 [1]: 51 nM
CC50 [2]: 2800 nM
selectivity ratio [3]: 55

CC(C)CCn1c(Cn2c(=O)n(CCN(C)C)c3ccccc32)nc2ccccc21
EC50 [1]: 400 nM
CC50 [2]: 10000 nM
selectivity ratio [3]: 25

C=C(C)n1c(=O)n(Cc2nc3ccccc3n2CCc2nn[nH]n2)c2ccccc21
selectivity ratio [3]: 14600

CC(C)CCn1c(Cn2c(=O)n(CCCC(=O)O)c3ccccc32)nc2ccccc21
EC50 [1]: 75 nM
CC50 [2]: 138000 nM
selectivity ratio [3]: 1840

Oc1nc2ccccc2n1Cc1nc2ccccc2n1CCn1cnnn1
EC50 [1]: 1200 nM
CC50 [2]: 92000 nM
selectivity ratio [3]: 77

CC(C)CCn1c(Cn2c(=O)n(CCC(=O)O)c3ccccc32)nc2ccccc21
EC50 [1]: 15 nM
CC50 [2]: 102000 nM
selectivity ratio [3]: 6810

CC(C)CCn1c(Cn2c(=O)n(Cc3ccccc3C(=O)N[C@@H](CC(=O)O)C(=O)O)c3ccccc32)nc2ccccc21
EC50 [1]: 6 nM
CC50 [2]: 154000 nM
selectivity ratio [3]: ≥ 25700

CC(C)CCn1c(Cn2c(=O)n(CCCS(=O)(=O)O)c3ccccc32)nc2ccccc21
EC50 [1]: 38 nM
CC50 [2]: 114000 nM
selectivity ratio [3]: 3010

CC(C)n1c(=O)n(Cc2nc3ccccc3n2CCc2noc(O)n2)c2ccccc21
Efficacy [12]: 2.1
Efficacy [13]: 2.55
EC50 [1]: 21 nM
CC50 [2]: 75400 nM
selectivity ratio [3]: 3540

C=C(C)n1c(=O)n(Cc2nc3ccccc3n2Cc2nn[nH]n2)c2ccccc21
EC50 [1]: 8440 nM
CC50 [2]: 181000 nM
selectivity ratio [3]: 21

CN(C)CCCn1c(Cn2c(O)nc3ccccc32)nc2ccccc21
EC50 [1]: 1660 nM
CC50 [2]: 89100 nM
selectivity ratio [3]: 53

O=C(O)Cn1c(=O)n(Cc2nc3ccccc3[nH]2)c2ccccc21
EC50 [1]: 155 nM
CC50 [2]: 20600 nM
selectivity ratio [3]: 133

CC(C)CCn1c(Cn2c(=O)n(Cc3ccc(C(=O)N[C@@H](CP(=O)(O)O)C(=O)O)cc3)c3ccccc32)nc2ccccc21
Efficacy [12]: 2.43
EC50 [1]: 34 nM
CC50 [2]: > 114000 nM
selectivity ratio [3]: > 3350

CC(C)CCn1c(Cn2c(=O)n(CC(=O)NS(=O)(=O)c3ccccc3)c3ccccc32)nc2ccccc21
EC50 [1]: 1210 nM
CC50 [2]: 14100 nM
selectivity ratio [3]: 12

NC(=O)c1ncn([C@@H]2O[C@H](CO)[C@@H](O)[C@H]2O)n1 [RIBAVIRIN]
Efficacy [14]: 2.5
Efficacy [15]: 1.86

CC(C)CCn1c(Cn2c(=O)n(CC(=O)NS(C)(=O)=O)c3ccccc32)nc2ccccc21
EC50 [1]: 613 nM
CC50 [2]: 152000 nM
selectivity ratio [3]: 247
